{"source": "paper PMC6199279", "about": "“Design of Peptoid-peptide Macrocycles to Inhibit the β-catenin TCF Interaction in Prostate Cancer” (Nature Communications, 2018)", "key": {"[1]": {"tested_on": "AR luciferase reporter (3xARE)", "test": "3x-Androgen Response Element (ARE) luciferase reporter assay in LNCaP-abl cells", "format": "cell-based", "excerpt": "Using a TOP-Flash Wnt luciferase reporter, we tested the 12 oligomers identified from in silico modeling for inhibitory activity (Fig. 2b). […] We also employed a 3 × -Androgen Response Element (ARE) luciferase reporter to measure the effect on AR activity. […] As additional controls, we obtained previously developed, commercially available Wnt inhibitors and tested them in the Wnt luciferase assay (Supplementary Fig. 5).\n(§1) We next characterized the dose response curves for compound 13 in the Wnt and AR luciferase reporters. The linear version of 13 (linear 13: NH2-|N-mpp, N-dmp, N-ipp, N-Smpe, N-Smpe, D-Ala|-OH) was used as a control compound. […] To test direct binding, we pre-formed dynamic light scattering (DLS) with β-catenin in the presence of vehicle, compound 13, and α-cyclodextrin. […] HEK293 cells were transiently transfected with a plasmid expressing full length, myc-tagged TCF4. After 48 h treatment with either vehicle (DMSO) or 10 µM 13, cells were lysed and myc-TCF4 protein was immunoprecipitated.\nLNCaP-abl and LNCaP-95 cells were cultured in indicator free RPMI 1640 media (Life) supplemented with 10% charcoal stripped FBS, 1% pennicillin/streptomycin, and 1% L-Glutamine. HEK-293 Cells were cultured in DMEM media (Life) supplemented with 10%FBS and 1% pennicillin/streptomycin. A549 and U2OS cells were cultured in RPMI 1640 media (Life) and McCoy’s 5 A modified media (Life), respectively, both supplemented with 10%FBS and 1% pennicillin/streptomycin. LNCaP-abl, and LNCaP-95 cell lines were generous gifts from Z. Culig (Innsbruck Medical University, Austria) and J. Isaacs (Johns Hopkins University, Baltimore, MD), respectively. Cell lines were authenticated by STR profiling (Genetica Cell Line Testing; Burlington, NC). […] Both were measured using the ONE-Glo detection kit (Promega) and data is standardized to CellTiter-Fluor (Promega) viability readings to account for potential variations in well to well cell number. […] Total protein concentration in cell lysates were determined using Pierce Rapid Gold BCA Protein Assay Kit (Thermo). […]"}, "β-catenin": {"biological_target": "T1, β-catenin (Homo sapiens, UniProt P35222)", "T1 construct": "His6-β-catenin armadillo domain, AA134-668; made in house; host or cells: E. coli BL21 DL3 (NEB)", "T1 sequence (P35222 134-668)": "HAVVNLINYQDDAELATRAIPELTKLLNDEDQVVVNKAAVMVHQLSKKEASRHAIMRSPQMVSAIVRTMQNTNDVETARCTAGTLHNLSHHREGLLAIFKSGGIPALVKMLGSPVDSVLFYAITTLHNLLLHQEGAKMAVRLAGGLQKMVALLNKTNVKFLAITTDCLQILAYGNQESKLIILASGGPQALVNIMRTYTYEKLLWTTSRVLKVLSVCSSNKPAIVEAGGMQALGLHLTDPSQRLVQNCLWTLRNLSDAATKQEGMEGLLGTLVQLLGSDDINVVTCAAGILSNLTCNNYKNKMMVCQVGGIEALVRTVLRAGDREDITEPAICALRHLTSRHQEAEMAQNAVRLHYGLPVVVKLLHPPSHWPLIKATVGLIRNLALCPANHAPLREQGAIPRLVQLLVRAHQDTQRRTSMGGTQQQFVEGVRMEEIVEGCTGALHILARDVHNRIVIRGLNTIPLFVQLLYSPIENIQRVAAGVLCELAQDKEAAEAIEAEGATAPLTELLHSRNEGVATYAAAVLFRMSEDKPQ", "test": "Dynamic light scattering of β-catenin", "format": "binding", "details": "10 µM compound vs 1% DMSO vehicle", "description": "as §1"}}, "note": "Numbered stars: 1 amine (or outer) side, 2 acyl side, 3 side chain; on linkers, the order of the positions; unused ones are H or OH. Square brackets hold non-standard residues; d marks the D form. Peptide text beside a SMILES is read from it. N(2-(2-PhOPh)Et)Gly = O=C(O)CNCCc1ccccc1Oc1ccccc1; Gly(N-3,5-(OMe)2-Ph) = COc1cc(NCC(=O)O)cc(OC)c1; X1 = COc1ccc([C@H](C)N(CC(=O)[*:2])[*:1])cc1; N((CH2)3OiPr)Gly = CC(C)OCCCNCC(=O)O", "data": [{"smiles": "COc1ccc([C@H](C)N2CC(=O)N[C@H](C)C(=O)N(CCc3ccccc3Oc3ccccc3)CC(=O)N(c3cc(OC)cc(OC)c3)CC(=O)N(CCCOC(C)C)CC(=O)N([C@@H](C)c3ccc(OC)cc3)CC2=O)cc1", "note": "[Compound 13] (cyclo([dA][N(2-(2-PhOPh)Et)Gly][Gly(N-3,5-(OMe)2-Ph)][N((CH2)3OiPr)Gly][X1][X1]))", "values": [{"measurement": "Inhibition of AR signaling (3xARE luciferase)", "setting": "[1]; 10 µM compound, relative to vehicle", "result": "more effective"}, {"measurement": "IC50", "setting": "[1]; 3xARE LNCaP-abl cells, 48 h compound, androgen-activated, read-out: IC50 for inhibition of the AR luciferase reporter", "result": 1.02, "unit": "µM"}, {"measurement": "Shift in measured hydrodynamic radius of β-catenin (DLS)", "setting": "β-catenin", "result": "significant shift"}]}]}
